# From patent US9890176B2, “Mannose derivatives for treating bacterial infections” (Vertex Pharmaceuticals Incorporated, priority 2013, dated 2018)
# Tested on: bacterial strain LF82 binding to the glycoprotein BSA-(Mannose)3
# Test: Bacterial Binding Assay (BBA)
# Assay type: cell-based, Escherichia coli
# Conditions: read-out: Bacterial Binding Assay IC50
# From the text: The purpose of the Bacterial Binding Assay (BBA) is to determine the inhibition activity of selective FimH antagonists on the bacterial strain LF82 binding to the glycoprotein BSA-(Mannose)3.
# Below is a list of the Materials used to run the BBA are described below. • 1. LB broth: Supplier: Gibco, #10855 • 2. D-PBS: Supplier: Wisent, #311-425-CL • 3. LB agar plates • 4. 96-well black plate (high binding): Supplier: Costar, #3925 • 5. TopSeal™-A adhesive sealing films; Supplier PerkinElmer, #6005185 • 6. Carbonate-bicarbonate buffer pH 9.6 tablets, Supplier: Medicago, #09-8922-24 • 7. Water, Supplier: Gibco, #15230-162 • 8. Bovine serum albumin (BSA): Supplier: Sigma, #A-7888 • 9. (Man)-3-BSA (α1-3, α1-6 Mannotriose-BSA, 1 mg), V-Labs, #NGP1336, lot#HGDX37-169-1 • 10. Tween 20: Supplier: Sigma, #P9416 • 11. Bright-Glo Luciferase Assay System: Supplier: Promega, #E2610 • 12. LF82/Luciferase strain: Invasive ability of an Escherichia coli strain isolated from the ileal mucosa of a patient with Crohn's disease. Boudeau J, Glasser A L, Masseret E, Joly B, Darfeuille-Michaud A, Infect Immun. 1999, 67(9), 4499-509
# Solutions and buffers used to run the BBA are described below. • 1. 0.04M carbonate-bicarbonate buffer (coating buffer) • 2. […] 1 mg of (Man)-3-BSA in 25 mL of water. • 3. 4000 ng/mL BSA • 4. 40 ng/mL BSA • 5. 1 μg/mL BSA-(Man)3: 150 μL of 40 ng/mL BSA-(Man)3+5.85 mL of 40 ng/mL BSA • 6. 0.5 μg/mL BSA-(Man)3 in 0.02M carbonate-bicarbonate buffer. • 7. 20 ng/mL BSA in 0.02M carbonate-bicarbonate buffer • 8. Blocking buffer (2% BSA/DPBS): 1 g of BSA in 50 mL D-PBS • 9. 2× binding buffer (0.2% BSA/D-PBS): 5 mL of blocking buffer+45 mL D-PBS. • 10. Washing buffer (D-PBS/0.01% Tween 20): 10 μL of Tween 20 in 100 mL D-PBS. • 11. 1× Bright-Glo Luciferase substrate:Dilute 1:1 the Bright-Glo Luciferase Assay System with D-PBS The experimental protocol to run the BBA is described below.
# Overnight culture of LF82/Luciferase strain: Into two Falcon 50 mL tubes, add 20 mL of LB+20 μL of 50 mg/mL Kanamycin and inoculate with a loop from glycerol stock of the LF82/Luciferase strain. Incubate overnight at 37° C. with no shaking.
# Glycoprotein coating of 96-well plates: Add 100 μL/well of 0.5-2 μg/mL BSA-(Man)3. 20 μg/mL BSA is used as the control background. Seal plate using an adhesive sealing film and incubate overnight at room temperature. Wash the 96-well plate three times with 150 μL/well of D-PBS, add 170 μL/well of blocking solution and incubate 45 min (minimum) at room temperature.
# Preparation of bacterial suspension: Mix the two cultures tubes (40 mL) and perform a 1:10 dilution in LB (900 μl LB+100 μl culture. Measure optical density (OD) of the bacterial cultures. OD1 ˜5×10^8 cells/mL. Centrifuge LF82 culture for 20 min at 3500 rpm at room temperature. Re-suspend bacterial pellet in D-PBS and centrifuge again for 20 min at 3500 rpm. Re-suspend bacterial pellet in D-PBS to obtain a bacterial concentration of 2×10^9 bacteria/mL. Dilute 1/10 in D-PBS to obtain a final bacterial concentration of 2×10^8 bacteria/mL (=107 bacteria/50 μL). Perform 1/10 serial dilutions in LB of each bacterial suspension, plate 10 μL of dilutions on LB agar plates (final dilutions of 10^−7) and incubate overnight at 37° C. and count CFUs to determine the actual bacteria density in the assay.
# Bacterial binding assay: Add 147 μL 2× binding buffer to compound plate (containing 3 μL of compound). After blocking step is performed (at least 45 min), wash plates three times with 200 μL/well of D-PBS. With a 100 μL multichannel manual pipettor, add 50 μL/well of compound diluted in 2× binding buffer. With a 100 μL multichannel manual pipettor, add 50 μL/well of bacterial suspension. Agitate at slow speed for 1 min and incubate 40-75 min at room temperature. Wash 5 times with 150 μL/well of washing buffer and then once with D-PBS. Add 100 μL/well of 1× Bright-Glo Luciferase substrate. […]
row,Structure (SMILES),IC50 [nM]
1,"Cc1cc(-c2cccc([N+](=O)[O-])c2)ccc1O[C@H]1O[C@H](CO)[C@@H](O)[C@H](O)[C@]1(C)O [Example 18, (2R,3S,4S,5S,6R)-6-(hydroxymethyl)-3-methyl-2-[2-methyl-4-(3-nitrophenyl)phenoxy]tetrahydropyran-3,4,5-triol]",13 ± 3
2,"C[C@@]1(O)[C@@H](Oc2ccc(N3CCc4cc([N+](=O)[O-])ccc43)cc2Cl)O[C@H](CO)[C@@H](O)[C@@H]1O [Example 19, (2R,3S,4S,5S,6R)-2-(2-chloro-4-(5-nitroindolin-1-yl)phenoxy)-6-(hydroxymethyl)-3-methyltetrahydro-2H-pyran-3,4,5-triol]",13 ± 6
3,"C[C@@]1(O)[C@@H](Oc2ccc(-c3ccc(O[C@H]4O[C@H](CO)[C@@H](O)[C@H](O)[C@]4(C)O)cc3)cc2)O[C@H](CO)[C@@H](O)[C@@H]1O [Example 106, (2R,3S,4S,5S,6R)-6-(hydroxymethyl)-3-methyl-2-[4-[4-[(2R,3S,4S,5S,6R)-3,4,5-trihydroxy-6-(hydroxymethyl)-3-methyl-tetrahydropyran-2-yl]oxyphenyl]phenoxy]tetrahydropyran-3,4,5-triol]",435 ± 115
4,"C[C@@]1(O)[C@@H](Oc2ccc(-c3ccc(O[C@H]4O[C@H](CO)[C@@H](O)[C@H](O)[C@]4(C)O)c(Cl)c3)cc2Cl)O[C@H](CO)[C@@H](O)[C@@H]1O [Example 107, (2R,3S,4S,5S,6R)-2-[2-chloro-4-[3-chloro-4-[(2R,3S,4S,5S,6R)-3,4,5-trihydroxy-6-(hydroxymethyl)-3-methyl-tetrahydropyran-2-yl]oxy-phenyl]phenoxy]-6-(hydroxymethyl)-3-methyl-tetrahydropyran-3,4,5-triol]",5 ± 1
5,"C[C@@]1(O)[C@@H](Oc2ccc3ccc(O[C@H]4O[C@H](CO)[C@@H](O)[C@H](O)[C@]4(C)O)cc3c2)O[C@H](CO)[C@@H](O)[C@@H]1O [Example 108, (2R,3S,4S,5S,6R)-6-(hydroxymethyl)-3-methyl-2-[[7-[(2R,3S,4S,5S,6R)-3,4,5-trihydroxy-6-(hydroxymethyl)-3-methyl-tetrahydropyran-2-yl]oxy-2-naphthyl]oxy]tetrahydropyran-3,4,5-triol]",158 ± 61
6,"COc1cc(-c2ccc(O[C@H]3O[C@H](CO)[C@@H](O)[C@H](O)[C@]3(C)O)c(OC)c2)ccc1O[C@H]1O[C@H](CO)[C@@H](O)[C@H](O)[C@]1(C)O [Example 109, (2R,3S,4S,5S,6R)-6-(hydroxymethyl)-2-[2-methoxy-4-[3-methoxy-4-[(2R,3S,4S,5S,6R)-3,4,5-trihydroxy-6-(hydroxymethyl)-3-methyl-tetrahydropyran-2-yl]oxy-phenyl]phenoxy]-3-methyl-tetrahydropyran-3,4,5-triol]",8 ± 4
7,"CCc1cc(-c2ccc(O[C@H]3O[C@H](CO)[C@@H](O)[C@H](O)[C@]3(C)O)c(CC)c2)ccc1O[C@H]1O[C@H](CO)[C@@H](O)[C@H](O)[C@]1(C)O [Example 110, (2R,3S,4S,5S,6R)-2-[2-ethyl-4-[3-ethyl-4-[(2R,3S,4S,5S,6R)-3,4,5-trihydroxy-6-(hydroxymethyl)-3-methyl-tetrahydropyran-2-yl]oxy-phenyl]phenoxy]-6-(hydroxymethyl)-3-methyl-tetrahydropyran-3,4,5-triol]",3 ± 1
8,"C[C@@]1(O)[C@@H](Oc2ccc(-c3ccc(O[C@H]4O[C@H](CO)[C@@H](O)[C@H](O)[C@]4(C)O)c(C#N)c3)cc2C#N)O[C@H](CO)[C@@H](O)[C@@H]1O [Example 111, 5-[3-cyano-4-[(2R,3S,4S,5S,6R)-3,4,5-trihydroxy-6-(hydroxymethyl)-3-methyl-tetrahydropyran-2-yl]oxy-phenyl]-2-[(2R,3S,4S,5S,6R)-3,4,5-trihydroxy-6-(hydroxymethyl)-3-methyl-tetrahydropyran-2-yl]oxy-benzonitrile]",6 ± 2
9,"C[C@@]1(O)[C@@H](Oc2ccc(-c3ccc(O[C@H]4O[C@H](CO)[C@@H](O)[C@H](O)[C@]4(C)O)c(F)c3)cc2F)O[C@H](CO)[C@@H](O)[C@@H]1O [Example 112, (2R,3S,4S,5S,6R)-2-[2-fluoro-4-[3-fluoro-4-[(2R,3S,4S,5S,6R)-3,4,5-trihydroxy-6-(hydroxymethyl)-3-methyl-tetrahydropyran-2-yl]oxy-phenyl]phenoxy]-6-(hydroxymethyl)-3-methyl-tetrahydropyran-3,4,5-triol]",68 ± 11
10,"Cc1ccc(-c2ccc(C)c(O[C@H]3O[C@H](CO)[C@@H](O)[C@H](O)[C@]3(C)O)c2)cc1O[C@H]1O[C@H](CO)[C@@H](O)[C@H](O)[C@]1(C)O [Example 113, (2R,3S,4S,5S,6R)-6-(hydroxymethyl)-3-methyl-2-[2-methyl-5-[4-methyl-3-[(2R,3S,4S,5S,6R)-3,4,5-trihydroxy-6-(hydroxymethyl)-3-methyl-tetrahydropyran-2-yl]oxy-phenyl]phenoxy]tetrahydropyran-3,4,5-triol]",15 ± 11
11,"C[C@@]1(O)[C@@H](Oc2ccc(-c3ccc(O[C@H]4O[C@H](CO)[C@@H](O)[C@H](O)[C@]4(C)O)c(OC(F)(F)F)c3)cc2OC(F)(F)F)O[C@H](CO)[C@@H](O)[C@@H]1O [Example 114, (2R,3S,4S,5S,6R)-6-(hydroxymethyl)-3-methyl-2-[2-(trifluoromethoxy)-4-[3-(trifluoromethoxy)-4-[(2R,3S,4S,5S,6R)-3,4,5-trihydroxy-6-(hydroxymethyl)-3-methyl-tetrahydropyran-2-yl]oxy-phenyl]phenoxy]tetrahydropyran-3,4,5-triol]",1 ± 1
12,"CC(C)c1cc(-c2ccc(O[C@H]3O[C@H](CO)[C@@H](O)[C@H](O)[C@]3(C)O)c(C(C)C)c2)ccc1O[C@H]1O[C@H](CO)[C@@H](O)[C@H](O)[C@]1(C)O [Example 115, (2R,3S,4S,5S,6R)-6-(hydroxymethyl)-2-[2-isopropyl-4-[3-isopropyl-4-[(2R,3S,4S,5S,6R)-3,4,5-trihydroxy-6-(hydroxymethyl)-3-methyl-tetrahydropyran-2-yl]oxy-phenyl]phenoxy]-3-methyl-tetrahydropyran-3,4,5-triol]",4 ± 0.6
13,"Cc1cc(-c2ccc(-c3ccc(O[C@H]4O[C@H](CO)[C@@H](O)[C@H](O)[C@]4(C)O)c(C)c3)cc2)ccc1O[C@H]1O[C@H](CO)[C@@H](O)[C@H](O)[C@]1(C)O [Example 116, (2R,3S,4S,5S,6R)-6-(hydroxymethyl)-3-methyl-2-[2-methyl-4-[4-[3-methyl-4-[(2R,3S,4S,5S,6R)-3,4,5-trihydroxy-6-(hydroxymethyl)-3-methyl-tetrahydropyran-2-yl]oxy-phenyl]phenyl]phenoxy]tetrahydropyran-3,4,5-triol]",30 ± 13
14,"Cc1cc(C#Cc2ccc(O[C@H]3O[C@H](CO)[C@@H](O)[C@H](O)[C@]3(C)O)c(C)c2)ccc1O[C@H]1O[C@H](CO)[C@@H](O)[C@H](O)[C@]1(C)O [Example 117, (2R,3S,4S,5S,6R)-6-(hydroxymethyl)-3-methyl-2-[2-methyl-4-[2-[3-methyl-4-[(2R,3S,4S,5S,6R)-3,4,5-trihydroxy-6-(hydroxymethyl)-3-methyl-tetrahydropyran-2-yl]oxy-phenyl]ethynyl]phenoxy]tetrahydropyran-3,4,5-triol]",15 ± 8
